Reference: patent US20230270724A1, “PDE3 inhibitors for treating viral infections” (priority 2020, published 2023)
Several values for one entry are separate records, joined by “and”; a condition that tells them apart may be missing. Equal entries are not always repeated. Entries after “also recorded” stand apart in the source; their conditions may differ.

How the values were obtained:
[1] = tested on: pro-inflammation; conditions: patients with cardiopulmonary bypass surgery; antiviral activity maintained; cited from earlier work
[2] = tested on: SARS-CoV-2; test: Clinical case series: enoximone IV (Perfan) in COVID-19 patients at ICU admission, compared with prior control patients; conditions: for FiO2 / RESP. RATE: one value per patient; for RESP. SUPPORT: one value per patient 1-4
[3] = at the doses used, all patients
[4] = one value per enoximone-treated subject (1-4 = c4-c7)

CSc1ccc(C(=O)c2[nH]c(=O)[nH]c2C)cc1 [enoximone, 1,3-dihydro-4-methyl-5-[4-(methylthio)benzoyl]-2H-imidazol-2-on]
effectiveness against pro-inflammation compared with methylprednisolone [1]: as effective against pro-inflammation as methylprednisolone
time after start of enoximone until breathing calmly and able to call ([2]; Patient 1, 20 mg IV then perfusion 10 mg/h, monosyllabic upon entry): 10 min
time until calmer breathing and mobilisation ([2]; Patient 2, 20 mg IV then 10 mg/h): about 2 days
time before the patient had lost the feeling of dyspnea ([2]; Patient 2, 20 mg IV then 10 mg/h, sputum retention): 1 days
time until patient breathed optimally and Optiflow could be reduced to 0 ([2]; Patient 3 (COPD Gold III), 20 mg IV then 10 mg/h): a day and a half
time until able to breathe calmly and communicate normally ([2]; Patient 4, bolus then i.v. perfusor 5 mg/hour during 24 hours): ≤ 10 min
FiO2 ([2]; after 24 hrs of Enoximone): 60% and 55% and 50%
RESP. RATE ([2]; after 24 hrs of Enoximone): 15 and 12
RESP. SUPPORT ([2]; after 24 hrs of Enoximone): none and Optiflow (3×)
FiO2 ([2]; after 48 hrs): 60% and 50%
RESP. RATE ([2]; after 48 hrs): 16 and 13
RESP. SUPPORT ([2]; after 48 hrs): none (2×) and Optiflow (2×)
persistence of beneficial effect ([2]; after discontinuation of enoximone, all patients): beneficial effect persisted even after discontinuation
adverse events [2, 3]: no clinically relevant adverse events were observed
tolerability [2, 3]: well-tolerated in all patients
blood gas analysis ([2]; between before and 1 h after enoximone): minimal improvement in three out of four patients
stay in ICU ([2]; enoximone-treated patients, controls 12-31 days): 2 to 5 days
discharge from hospital after start of enoximone treatment ([2]; enoximone-treated patients, controls 18-44 days following start of mechanical ventilation): 5 to 12 days
overall stay in hospital ([2]; enoximone-treated patients, controls 22-46 days, Mann-Whitney U test p=0.05): 13 to 15 days
edema ([2]; following enoximone treatment): decrease of edema
oxygenation ([2]; following enoximone treatment (Table 3, FiO2%)): substantially improved
need for mechanical ventilation ([2]; four enoximone-treated patients vs three controls, Fisher's exact test p=0.029): none of the enoximone-treated patients required mechanical ventilation; also recorded: no need for mechanical ventilation
symptomatic relief ([2]; four patients): rapid symptomatic relief in two out of four patients
Days mechanical ventilation [2, 4]: 0 days
Total days in hospital [=ii + iii + iv] [2, 4]: 14 days and 13 days and 15 days
Total duration of disease (onset-discharge) [=i + ii + iii + iv) [2, 4]: 19 and 20 and 26
time to full recovery ([2]; patients 1 and 4): within a few hours
time to respond ([2]; patients 2 and 3 (comorbid obesity or COPD GOLD III), sputum retention): 24 to 36 h
